Patent publication EP0550016A1, “Novel quinolone carboxylic acid derivatives and processes for preparing same” (KOREA RESEARCH INSTITUTE OF CHEMICAL TECHNOLOGY, priority 1991, dated 1993)
Values after ≈ are worked out from the molar mass of the structure shown. Read-outs that look alike come from different tables or passages of the source.

Assays:
[1] = test system: Streptococcus pyogenes 308 A; experiment: In vitro anti-bacterial activity test (MIC, two-fold dilution method) against the standard strains; assay type: cell-based; settings: Table 1 strain 1: Streptococcus pyogenes 308 A
[2] = test system: Streptococcus pyogenes 77 A; experiment: as above; assay type: cell-based; settings: Table 1 strain 2: Streptococcus pyogenes 77 A; read-out: MIC
[3] = test system: Streptococcus faecium MD 8b; experiment: as above; assay type: cell-based; settings: Enterococcus faecium, MD8B; Table 1 strain 3: Streptococcus faecium MD 8b; read-out: MIC
[4] = test system: Staphylococcus aureus SG 511; experiment: as above; assay type: cell-based; settings: SG511; Table 1 strain 4: Staphylococcus aureus SG 511
[5] = test system: Staphylococcus aureus 285; experiment: as above; assay type: cell-based; settings: Table 1 strain 5: Staphylococcus aureus 285; read-out: MIC
[6] = test system: Staphylococcus aureus 503; experiment: as above; assay type: cell-based; settings: Table 1 strain 6: Staphylococcus aureus 503; read-out: MIC
Escherichia coli DC 0 [7] = experiment: as above; assay type: cell-based; settings: DC0; Table 1 strain 7: Escherichia coli DC 0
Escherichia coli DC 0 [8] = experiment: as above; assay type: cell-based; settings: DC0; Table 1 strain 8: Escherichia coli DC 0
Escherichia coli DC 2 = experiment: as above; assay type: cell-based; settings: DC2; Table 1 strain 9: Escherichia coli DC 2; read-out: MIC
Escherichia coli OTEM = experiment: as above; assay type: cell-based; settings: Table 1 strain 10: Escherichia coli OTEM
Escherichia coli 1507 E = experiment: as above; assay type: cell-based; settings: Table 1 strain 11: Escherichia coli 1507 E
[9] = test system: Pseudomonas aeruginosa 9027; experiment: as above; assay type: cell-based; settings: Table 1 strain 12: Pseudomonas aeruginosa 9027
[10] = test system: Pseudomonas aeruginosa 1592 E; experiment: as above; assay type: cell-based; settings: Table 1 strain 13: Pseudomonas aeruginosa 1592 E
[11] = test system: Pseudomonas aeruginosa 1771; experiment: as above; assay type: cell-based; settings: Table 1 strain 14: Pseudomonas aeruginosa 1771
[12] = test system: Pseudomonas aeruginosa 1771 M; experiment: as above; assay type: cell-based; settings: Table 1 strain 15: Pseudomonas aeruginosa 1771 M
Salmonella typhimurium = experiment: as above; assay type: cell-based; settings: Salmonella enterica; Table 1 strain 16: Salmonella typhimurium
[13] = test system: Klebsiella aerogenes 1082 E; experiment: as above; assay type: cell-based; settings: Table 1 strain 17: Klebsiella aerogenes 1082 E
[14] = test system: Klebsiella aerogenes 1522 E; experiment: as above; assay type: cell-based; settings: Table 1 strain 18: Klebsiella aerogenes 1522 E
[15] = test system: Enterobacter cloacae P 99; experiment: as above; assay type: cell-based; settings: P99; Table 1 strain 19: Enterobacter cloacae P 99
[16] = test system: Enterobacter cloacae 1321 E; experiment: as above; assay type: cell-based; settings: Table 1 strain 20: Enterobacter cloacae 1321 E
[17] = test system: Staphylococcus aureus 88 E; experiment: In vitro anti-bacterial activity test (MIC, two-fold dilution method), Table 2 strains; assay type: cell-based; settings: Table 2 strain 1: Staphylococcus aureus 88 E
[18] = test system: Staphylococcus aureus 121 E; experiment: as above; assay type: cell-based; settings: Table 2 strain 2: Staphylococcus aureus 121 E; read-out: MIC
[19] = test system: Staphylococcus aureus 208 E; experiment: as above; assay type: cell-based; settings: Table 2 strain 3: Staphylococcus aureus 208 E; read-out: MIC
[20] = test system: Staphylococcus aureus 256 E; experiment: as above; assay type: cell-based; settings: Table 2 strain 4: Staphylococcus aureus 256 E
[21] = test system: Staphylococcus aureus 690 E; experiment: as above; assay type: cell-based; settings: Table 2 strain 5: Staphylococcus aureus 690 E; read-out: MIC
[22] = test system: Staphylococcus aureus 692 E; experiment: as above; assay type: cell-based; settings: Table 2 strain 6: Staphylococcus aureus 692 E
[23] = test system: Staphylococcus aureus 693 E; experiment: as above; assay type: cell-based; settings: Table 2 strain 7: Staphylococcus aureus 693 E; read-out: MIC
[24] = test system: Staphylococcus aureus 694 E; experiment: as above; assay type: cell-based; settings: Table 2 strain 8: Staphylococcus aureus 694 E; read-out: MIC
[25] = test system: Staphylococcus aureus 695 E; experiment: as above; assay type: cell-based; settings: Table 2 strain 9: Staphylococcus aureus 695 E; read-out: MIC
[26] = test system: Staphylococcus aureus 697 E; experiment: as above; assay type: cell-based; settings: Table 2 strain 10: Staphylococcus aureus 697 E
[27] = test system: Staphylococcus aureus 701 E; experiment: as above; assay type: cell-based; settings: Table 2 strain 11: Staphylococcus aureus 701 E; read-out: MIC
[28] = test system: Staphylococcus aureus 703 E; experiment: as above; assay type: cell-based; settings: Table 2 strain 12: Staphylococcus aureus 703 E; read-out: MIC
[29] = test system: Staphylococcus aureus 705 E; experiment: as above; assay type: cell-based; settings: Table 2 strain 13: Staphylococcus aureus 705 E; read-out: MIC
[30] = test system: Staphylococcus aureus 706 E; experiment: as above; assay type: cell-based; settings: Table 2 strain 14: Staphylococcus aureus 706 E; read-out: MIC
[31] = test system: Staphylococcus aureus 707 E; experiment: as above; assay type: cell-based; settings: Table 2 strain 15: Staphylococcus aureus 707 E; read-out: MIC
[32] = test system: Staphylococcus aureus 708 E; experiment: as above; assay type: cell-based; settings: Table 2 strain 16: Staphylococcus aureus 708 E
[33] = test system: Staphylococcus aureus 711 E; experiment: as above; assay type: cell-based; settings: Table 2 strain 17: Staphylococcus aureus 711 E; read-out: MIC
[34] = test system: Staphylococcus aureus 714 E; experiment: as above; assay type: cell-based; settings: Table 2 strain 18: Staphylococcus aureus 714 E; read-out: MIC
[35] = test system: Staphylococcus aureus 725 E; experiment: as above; assay type: cell-based; settings: Table 2 strain 19: Staphylococcus aureus 725 E; read-out: MIC
Acute Toxicity Test = settings: mouse, in vivo, female ICR mice, day 14, read-out: Acute Toxicity(LD₅₀)
Experimental: Test compounds were administered to female ICR mice weighing 20 to 25g and on day 14, LD₅₀ was calculated from the number of survived mice by the probit analysis.

Row | Structure (SMILES) | MIC [1] | MIC [2] | MIC [3] | MIC [4] | MIC [5] | MIC [6] | MIC (Escherichia coli DC 0 [7]) | MIC (Escherichia coli DC 0 [8]) | MIC (Escherichia coli DC 2) | MIC (Escherichia coli OTEM) | MIC (Escherichia coli 1507 E) | MIC [9] | MIC [10] | MIC [11] | MIC [12] | MIC (Salmonella typhimurium) | MIC [13] | MIC [14] | MIC [15] | MIC [16] | other results
1 | CNC1CC12CCN(c1c(F)cc3c(=O)c(C(=O)O)cn(C4CC4)c3c1Cl)C2 (stereo not shown) [Example 9, 7-(1-methylamino-5-azaspiro[2,4]heptane-5-yl)-8-chloro-1-cyclopropyl-6-fluoro-1,4-dihydro-4-oxo-quinoline-3-carboxylic acid] | 0.391 µg/mL (≈ 0.963 µM) | 0.195 µg/mL (≈ 0.48 µM) | 0.195 µg/mL (≈ 0.48 µM) | 0.049 µg/mL (≈ 0.121 µM) | 0.049 µg/mL (≈ 0.121 µM) | 0.049 µg/mL (≈ 0.121 µM) | 0.025 µg/mL (≈ 0.0616 µM) | 0.391 µg/mL (≈ 0.963 µM) | 0.098 µg/mL (≈ 0.241 µM) | 0.049 µg/mL (≈ 0.121 µM) | 0.098 µg/mL (≈ 0.241 µM) | 3.12 µg/mL (≈ 7.7 µM) | 1.56 µg/mL (≈ 3.85 µM) | 1.56 µg/mL (≈ 3.85 µM) | 0.781 µg/mL (≈ 1.92 µM) | 0.049 µg/mL (≈ 0.121 µM) | 0.025 µg/mL (≈ 0.0616 µM) | 0.195 µg/mL (≈ 0.48 µM) | 0.098 µg/mL (≈ 0.241 µM) | 0.025 µg/mL (≈ 0.0616 µM) | MIC [17]: 0.195 µg/mL (≈ 0.48 µM); MIC [18]: 0.098 µg/mL (≈ 0.241 µM); MIC [19]: 0.098 µg/mL (≈ 0.241 µM); MIC [20]: 0.098 µg/mL (≈ 0.241 µM); MIC [21]: 0.049 µg/mL (≈ 0.121 µM); MIC [22]: 0.049 µg/mL (≈ 0.121 µM); MIC [23]: 0.049 µg/mL (≈ 0.121 µM); MIC [24]: 0.098 µg/mL (≈ 0.241 µM); MIC [25]: 0.049 µg/mL (≈ 0.121 µM); MIC [26]: 0.049 µg/mL (≈ 0.121 µM); MIC [27]: 0.098 µg/mL (≈ 0.241 µM); MIC [28]: 0.098 µg/mL (≈ 0.241 µM); MIC [29]: 0.098 µg/mL (≈ 0.241 µM); MIC [30]: 0.098 µg/mL (≈ 0.241 µM); MIC [31]: 0.098 µg/mL (≈ 0.241 µM); MIC [32]: 0.025 µg/mL (≈ 0.0616 µM); MIC [33]: 0.025 µg/mL (≈ 0.0616 µM); MIC [34]: 0.098 µg/mL (≈ 0.241 µM); MIC [35]: 0.098 µg/mL (≈ 0.241 µM)
2 | C[C@H]1COc2c(N3CCC4(CC4N)C3)c(F)cc3c(=O)c(C(=O)O)cn1c23 (stereo partly shown) [Example 13] | 0.391 µg/mL (≈ 1.05 µM) | 0.195 µg/mL (≈ 0.522 µM) | 0.195 µg/mL (≈ 0.522 µM) | 0.098 µg/mL (≈ 0.262 µM) | 0.098 µg/mL (≈ 0.262 µM) | 0.049 µg/mL (≈ 0.131 µM) | 0.025 µg/mL (≈ 0.067 µM) | 0.391 µg/mL (≈ 1.05 µM) | 0.098 µg/mL (≈ 0.262 µM) | 0.049 µg/mL (≈ 0.131 µM) | 0.098 µg/mL (≈ 0.262 µM) | 1.56 µg/mL (≈ 4.19 µM) | 1.56 µg/mL (≈ 4.19 µM) | 1.56 µg/mL (≈ 4.19 µM) | 0.391 µg/mL (≈ 1.05 µM) | 0.049 µg/mL (≈ 0.131 µM) | 0.004 µg/mL (≈ 0.0107 µM) | 0.098 µg/mL (≈ 0.262 µM) | 0.049 µg/mL (≈ 0.131 µM) | 0.049 µg/mL (≈ 0.131 µM) | LD50 at 336 h (Acute Toxicity Test; ip, Intraperitoneal Injection): 620 mg/kg; LD50 at 336 h (Acute Toxicity Test; Oral Administration): 4000 mg/kg
